Assay results taken from patent publication US9000162B2, “5,8-difluoro-4-(2-(4-(heteroaryloxy)-phenyl)ethylamino)quinazolines and their use as agrochemicals” (Dow AgroSciences LLC, priority 2008, dated 2015).

Assays:
Type in all cases: in vivo
[1] = system: Pseudoperonospora cubensis (PSPECU); experiment: Cucumber downy mildew foliar protectant test; details: 200 ppm foliar, inoculated one day after treatment, read-out: Activity against fungal diseases PSPECU
Experimental: The plants were inoculated with the fungus one day after treatment. ***=80-100% control; **=50-79% control; *=0-49% control. It will be understood by those in the art that the efficacy of the compounds against the foregoing fungi establishes the general utility of the compounds as fungicides. The activity of the compounds as effective fungicides was determined by applying the compounds to plants and observing control of fungal disease. […] All plants were inoculated with spores of the fungus the day after treatment, then incubated in an environment conducive to disease development. Disease severity was evaluated 4 to 25 days later, depending on the speed of disease development. The following experiments were performed in the laboratory to determine the fungicidal efficacy of the compounds of the invention. Cucumber Downy Mildew (Causal Agent Pseudoperonospora cubensis; Bayer Code […]): Cucumber plants (variety “Bush Champion' or 'Bush Pickle Hybrid') were grown from seed in a soil-less peat-based potting mixture (Metromix) until the first true leaf was 20-80% expanded. Each pot contained 1 seedling. These plants were sprayed until wet with the formulated test compound. On the following day, the leaves were inoculated with an aqueous suspension of downy mildew sporangia and the plants were kept in high humidity for one day to permit sporangia to germinate and infect the leaf. The plants were then incubated in a growth chamber until disease developed on untreated control plants. Table 1 presents the activity of typical compounds of the present invention when evaluated in these experiments. The effectiveness of the test compounds at controlling disease when sprayed on leaves was determined by assessing the severity of disease on treated plants, then converting the severity to percent control based on the level of disease on untreated, inoculated plants.

[2] = system: Puccinia recondita tritici (PUCCRT); experiment: Leaf rust of wheat foliar protectant test; details: 200 ppm foliar, inoculated one day after treatment, read-out: Activity against fungal diseases PUCCRT
Experimental: (§1) The plants were inoculated with the fungus one day after treatment. ***=80-100% control; **=50-79% control; *=0-49% control. It will be understood by those in the art that the efficacy of the compounds against the foregoing fungi establishes the general utility of the compounds as fungicides. The activity of the compounds as effective fungicides was determined by applying the compounds to plants and observing control of fungal disease. […] All plants were inoculated with spores of the fungus the day after treatment, then incubated in an environment conducive to disease development. Disease severity was evaluated 4 to 25 days later, depending on the speed of disease development. The following experiments were performed in the laboratory to determine the fungicidal efficacy of the compounds of the invention. […] Each pot contained 3-8 seedlings. These plants were sprayed until wet with the formulated test compounds. On the following day, the leaves were inoculated with an aqueous spore suspension of Puccinia recondita tritici and the plants were kept in high humidity overnight to permit spores to germinate and infect the leaf. The plants were then transferred to a greenhouse until disease developed on untreated control plants. Table 1 presents the activity of typical compounds of the present invention when evaluated in these experiments. The effectiveness of the test compounds at controlling disease when sprayed on leaves was determined by assessing the severity of disease on treated plants, then converting the severity to percent control based on the level of disease on untreated, inoculated plants.

[3] = system: Magnaporthe grisea = Pyricularia oryzae (PYRIOR); experiment: whole plant or invertebrate; details: foliar, read-out: Activity against fungal diseases PYRIOR
[4] = system: Septoria tritici (SEPTTR); experiment: Septoria blotch of wheat foliar protectant test; details: Zymoseptoria tritici, read-out: Activity against fungal diseases SEPTTR; for pest or weed control at 200 ppm: 200 ppm foliar, inoculated one day after treatment; for pest or weed control at 25 ppm: foliar, Tested at 25 ppm (footnote b)
Experimental: as §1, with “3-10” for “3-8”, “compound.” for “compounds.”, “Septoria” for “Puccinia recondita”, “(one day in a dark dew chamber followed by three days in a lighted dew chamber)” for “overnight”

SMILES	pest or weed control at 200 ppm [1] [%]	pest or weed control at 200 ppm [2] [%]	pest or weed control at 200 ppm [3] [%]	pest or weed control at 200 ppm [4] [%]	pest or weed control at 25 ppm [4] [%]
Oc1ccc(CCNc2ncnc3c(F)cc(F)c(F)c23)cc1 [Compound 27]	0 to 49	0 to 49	0 to 49	0 to 49	
COc1ccc(CCNc2ncnc3c(F)cc(F)c(F)c23)cc1Cl [Compound 86]	80 to 100	0 to 49	0 to 49	0 to 49	
Oc1cc(CCNc2ncnc3c(F)ccc(F)c23)ccc1Oc1cc(C(F)(F)F)ccn1 [Compound 56]	80 to 100	80 to 100	80 to 100	50 to 79	
Cc1cc(CCNc2ncnc3c(F)ccc(F)c23)ccc1Oc1cc(C(F)(F)F)cc[n+]1[O-] [Compound 61]	80 to 100	80 to 100	50 to 79	80 to 100	
N#Cc1cc(CCNc2ncnc3c(F)ccc(F)c23)ccc1Oc1cc(C(F)(F)F)ccn1 [Compound 41]	80 to 100	80 to 100	80 to 100		50 to 79
Cc1cc(O)ccc1CCNc1ncnc2c(F)ccc(F)c12 [Compound 51]	0 to 49	0 to 49	50 to 79	0 to 49	
[O-][n+]1ccc(C(F)(F)F)cc1Oc1ccc(CCNc2ncnc3c(F)ccc(F)c23)cc1 [Compound 54]	80 to 100	80 to 100	80 to 100	80 to 100	
N#Cc1ccnc(Oc2ccc(CCNc3ncnc4c(F)ccc(F)c34)cc2)c1 [Compound 2]	80 to 100	80 to 100	80 to 100	0 to 49	
COc1cc(CCNc2ncnc3c(F)ccc(F)c23)ccc1Oc1c(Cl)cnc(C(F)(F)F)c1Cl [Compound 69]	80 to 100	80 to 100	80 to 100	80 to 100	
COc1ccc(CCNc2ncnc3c(F)cc(F)c(F)c23)cc1C [Compound 68]	50 to 79	0 to 49	80 to 100	0 to 49	
Oc1ccc(CCNc2ncnc3c(F)ccc(F)c23)cc1 [Compound 4]	50 to 79	50 to 79	0 to 49	0 to 49	
Fc1cc(Oc2ncc(C(F)(F)F)cc2F)ccc1CCNc1ncnc2c(F)ccc(F)c12 [Compound 122]	80 to 100	80 to 100	50 to 79		80 to 100
Cc1cc(Oc2cc(C(F)(F)F)ncn2)ccc1CCNc1ncnc2c(F)ccc(F)c12 [Compound 118]	80 to 100	80 to 100	80 to 100		80 to 100
COc1cc(CCNc2ncnc3c(F)ccc(F)c23)ccc1Oc1cc(C(F)(F)F)cc[n+]1[O-] [Compound 59]	80 to 100	80 to 100	80 to 100	80 to 100	
